Assay type in all cases: biochemical
For one test, the target named is T1, Btk (Homo sapiens, UniProt Q06187).
T1 construct: purified from insect cells as a full-length construct containing a N-terminal 6X-His tag; His6 (N); made in house; host or cells: insect cells (Method C)
The test is described as follows: Btk in vitro inhibitory activity (one of Method A TR-FRET, Method B electrophoretic mobility shift, Method C radiometric filter binding). The procedure, abridged: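 Three alternative formats were used. A radiometric filter-binding read used 8 nM full-length His-BTK with 0.2 mg/mL poly(Glu-Tyr) 4:1 (C); microfluidic separation of 1 μM FAM-peptide by 1 nM BTK gave IC50 from 12-point curves (B); TR-FRET at Km ATP, 0.5 nM Btk, gave Ki(app)-derived IC50 (A).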

For the next test, the target named is T2, TEC (Homo sapiens, UniProt P42680).
T2 sequence (P42680 1-631): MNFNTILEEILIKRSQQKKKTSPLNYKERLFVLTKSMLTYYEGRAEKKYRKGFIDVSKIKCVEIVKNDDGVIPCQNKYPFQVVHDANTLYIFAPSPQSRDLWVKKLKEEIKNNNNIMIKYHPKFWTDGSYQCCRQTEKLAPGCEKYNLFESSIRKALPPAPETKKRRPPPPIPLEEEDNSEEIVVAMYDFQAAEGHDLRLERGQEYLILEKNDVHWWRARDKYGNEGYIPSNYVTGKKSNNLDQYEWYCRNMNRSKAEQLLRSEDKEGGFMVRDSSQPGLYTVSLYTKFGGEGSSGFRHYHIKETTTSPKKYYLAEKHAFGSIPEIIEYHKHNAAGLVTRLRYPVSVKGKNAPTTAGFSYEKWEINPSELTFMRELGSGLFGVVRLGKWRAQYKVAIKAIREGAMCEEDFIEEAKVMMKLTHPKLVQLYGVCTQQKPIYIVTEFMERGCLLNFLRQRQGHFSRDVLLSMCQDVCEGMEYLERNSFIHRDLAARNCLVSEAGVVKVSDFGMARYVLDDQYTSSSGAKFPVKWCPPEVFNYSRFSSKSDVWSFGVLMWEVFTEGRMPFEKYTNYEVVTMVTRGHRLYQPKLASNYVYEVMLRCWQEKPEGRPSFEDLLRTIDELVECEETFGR
In words: Inhibition of a panel of kinases (in vitro HotSpot kinase assay, 33P-ATP, 1 μM ATP). The conditions noted are these: for pIC50: HotSpot kinase assay, 1 μM ATP; for TEC/Btk: ratio of TEC IC50 to Btk IC50 (selectivity). An outline of the steps:
(§1)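 Radiometric read-out: 33P transfer to a suitable substrate by each purified enzyme, ATP at 1 μM. Values are degree of inhibition.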

Another test has as its target T3, panel of kinases (Homo sapiens, UniProt P51813).
T3 sequence (P51813 1-675): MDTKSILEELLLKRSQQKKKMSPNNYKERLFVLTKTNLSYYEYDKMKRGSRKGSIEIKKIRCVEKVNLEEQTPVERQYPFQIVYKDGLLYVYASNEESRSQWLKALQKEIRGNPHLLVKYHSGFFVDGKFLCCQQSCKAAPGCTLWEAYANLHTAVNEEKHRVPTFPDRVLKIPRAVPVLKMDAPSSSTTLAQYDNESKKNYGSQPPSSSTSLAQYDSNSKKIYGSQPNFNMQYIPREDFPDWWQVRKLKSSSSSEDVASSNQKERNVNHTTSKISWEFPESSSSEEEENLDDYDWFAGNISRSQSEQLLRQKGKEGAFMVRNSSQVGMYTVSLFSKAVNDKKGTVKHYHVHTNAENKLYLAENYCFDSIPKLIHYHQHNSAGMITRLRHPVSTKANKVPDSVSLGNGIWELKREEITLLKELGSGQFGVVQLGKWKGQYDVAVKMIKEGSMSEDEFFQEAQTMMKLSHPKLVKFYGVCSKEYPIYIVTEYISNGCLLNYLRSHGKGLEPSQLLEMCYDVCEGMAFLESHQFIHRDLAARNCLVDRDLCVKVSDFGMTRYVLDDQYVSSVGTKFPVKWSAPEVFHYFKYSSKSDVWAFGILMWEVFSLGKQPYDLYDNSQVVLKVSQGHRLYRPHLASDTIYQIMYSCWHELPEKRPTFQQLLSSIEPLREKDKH
The test is described as follows: Inhibition of a panel of kinases (in vitro HotSpot kinase assay, 33P-ATP, 1 μM ATP), other kinases. The note with it: BMX wild-type, read-out: BMX-WT IC50. The procedure, abridged:
as §1

The mark [1] stands for this setting: method is one of A, B or C, not stated which, read-out: IC50 values against Btk.
Where [2] appears, read: wild-type Btk, read-out: Btk-WT IC50.

pIC50: −log10 of the molar value. Read-outs that look alike come from different tables or passages of the source.

Drawing on US20180194762A1 (Pharmacyclics LLC, priority 2017, published 2018), this text covers IC50 and TEC/Btk for 14 compounds.

One may read the pIC50 as −log10 of the IC50, conventionally taken in molar units.

T1 sequence (Q06187 whole entry): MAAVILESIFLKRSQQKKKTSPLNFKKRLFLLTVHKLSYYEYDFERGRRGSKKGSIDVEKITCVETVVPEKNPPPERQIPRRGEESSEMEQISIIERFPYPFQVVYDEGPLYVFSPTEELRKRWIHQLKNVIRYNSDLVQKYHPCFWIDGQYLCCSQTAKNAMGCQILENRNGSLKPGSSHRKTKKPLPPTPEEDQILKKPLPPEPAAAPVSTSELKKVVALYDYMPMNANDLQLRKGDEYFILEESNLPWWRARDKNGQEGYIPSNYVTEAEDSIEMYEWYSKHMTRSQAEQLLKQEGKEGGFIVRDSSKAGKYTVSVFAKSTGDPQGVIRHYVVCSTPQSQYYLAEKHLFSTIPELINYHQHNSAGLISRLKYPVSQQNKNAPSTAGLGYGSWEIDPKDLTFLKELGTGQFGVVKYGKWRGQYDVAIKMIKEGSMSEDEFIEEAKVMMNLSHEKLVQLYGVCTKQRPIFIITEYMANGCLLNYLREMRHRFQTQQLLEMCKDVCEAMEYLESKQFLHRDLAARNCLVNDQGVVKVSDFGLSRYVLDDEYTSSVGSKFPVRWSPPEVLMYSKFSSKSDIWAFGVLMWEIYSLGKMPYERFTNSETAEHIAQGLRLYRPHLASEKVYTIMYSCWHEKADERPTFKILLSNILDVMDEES

Consider `C=CC(=O)N[C@@H]1CCN(c2n[nH]c3nccc(-c4ccc(CNC(=O)c5noc(C(C)(C)C)n5)c(F)c4)c23)C1` [Example 102, 5-tert-butyl-N-[(2-fluoro-4-{3-[(3R)-3-(prop-2-enamido)pyrrolidin-1-yl]-1H-pyrazolo[3,4-b]pyridin-4-yl}phenyl)methyl]-1,2,4-oxadiazole-3-carboxamide], for which the pIC50 was above 8.00 at Btk (setting [1]), 10.19 at Btk (setting [2]), 7.70 against TEC and 7.48 at panel of kinases. The TEC/Btk on TEC is 305.
With `CC(C)(C)c1ccc(C(=O)NCc2ccc(-c3ccnc4[nH]nc(NC5CCNCC5)c34)cc2F)cc1` [Example 103, 4-tert-butyl-N-[(2-fluoro-4-{3-[(piperidin-4-yl)amino]-1H-pyrazolo[3,4-b]pyridin-4-yl}phenyl)methyl]benzamide], the pIC50 is 6.76 at Btk (setting [2]), below 5.00 against TEC and 5.35 on panel of kinases. Further, on TEC, the TEC/Btk was above 100.
Turning to `C=CC(=O)N1CCC(Nc2n[nH]c3nccc(-c4ccc(CNC(=O)c5ccc(C(C)(C)C)cc5)c(F)c4)c23)CC1` [Example 104, 4-tert-butyl-N-{[2-fluoro-4-(3-{[1-(prop-2-enoyl)piperidin-4-yl]amino}-1H-pyrazolo[3,4-b]pyridin-4-yl)phenyl]methyl}benzamide], the pIC50 at Btk (setting [1]) is above 8.00; at Btk (setting [2]), 8.73; against TEC, 5.81; at panel of kinases it was 6.05. Moreover, the TEC/Btk at TEC was 834.
The matching figures for `C=CC(=O)N1CCC(Nc2n[nH]c3nccc(-c4ccc(CNC(=O)c5noc(C(C)(C)C)n5)c(F)c4)c23)CC1` [Example 105, 5-tert-butyl-N-{[2-fluoro-4-(3-{[1-(prop-2-enoyl)piperidin-4-yl]amino}-1H-pyrazolo[3,4-b]pyridin-4-yl)phenyl]methyl}-1,2,4-oxadiazole-3-carboxamide]: above 8.00, 9.34, 6.33, 6.51 and 1028.
Take `C=CC(=O)N1CC(Nc2n[nH]c3nccc(-c4ccc(CNC(=O)c5ccc(C(C)(C)C)cc5)c(F)c4)c23)C1` [Example 106, 4-tert-butyl-N-{[2-fluoro-4-(3-{[1-(prop-2-enoyl)azetidin-3-yl]amino}-1H-pyrazolo[3,4-b]pyridin-4-yl)phenyl]methyl}benzamide]: the negative-log IC50 (pIC50) on Btk (setting [2]), against TEC and at panel of kinases was below 5.00 throughout.
As to `C=CC(=O)N1CC(Nc2n[nH]c3nccc(-c4ccc(CNC(=O)c5noc(C(C)(C)C)n5)c(F)c4)c23)C1` [Example 107, 5-tert-butyl-N-{[2-fluoro-4-(3-{[1-(prop-2-enoyl)azetidin-3-yl]amino}-1H-pyrazolo[3,4-b]pyridin-4-yl)phenyl]methyl}-1,2,4-oxadiazole-3-carboxamide], the negative logarithm of the IC50 (pIC50) at Btk (setting [2]) was 6.28; at TEC it was below 5.00; at panel of kinases it was below 5.00. Also, on TEC, the TEC/Btk is given as above 100.
As to `CC(C)(C)c1nc(C(=O)NCc2ccc(-c3ccnc4[nH]nc(N5CC[C@@H](N)C5)c34)cc2F)no1` [Example 108, N-[(4-{3-[(3R)-3-aminopyrrolidin-1-yl]-1H-pyrazolo[3,4-b]pyridin-4-yl}-2-fluorophenyl)methyl]-5-tert-butyl-1,2,4-oxadiazole-3-carboxamide], the pIC50 is above 8.00 at Btk (setting [1]), 8.75 at Btk (setting [2]), 5.78 on TEC and 5.76 at panel of kinases.
`CC(C)(C)c1nc(C(=O)NCc2ccc(-c3ccnc4[nH]nc(NC5CCNCC5)c34)cc2F)no1` [Example 109, 5-tert-butyl-N-[(2-fluoro-4-{3-[(piperidin-4-yl)amino]-1H-pyrazolo[3,4-b]pyridin-4-yl}phenyl)methyl]-1,2,4-oxadiazole-3-carboxamide]: the figures for the pIC50 on Btk (setting [2]), on TEC and on panel of kinases were 7.52, 5.08 and 5.38, respectively.
For the compound `CC#CC(=O)N1CC[C@@H](Nc2n[nH]c3nccc(-c4ccc(CNC(=O)c5ccc(C(F)(F)F)cc5)c(F)c4)c23)C1` [Example 110, N-{[4-(3-{[(3R)-1-(but-2-ynoyl)pyrrolidin-3-yl]amino}-1H-pyrazolo[3,4-b]pyridin-4-yl)-2-fluorophenyl]methyl}-4-(trifluoromethyl)benzamide], the pIC50 was above 8.00 on Btk (setting [1]), 8.72 at Btk (setting [2]), 6.78 against TEC and 7.18 on panel of kinases. The TEC/Btk at TEC amounted to 88.
With `CC#CC(=O)N1CC[C@@H](Nc2n[nH]c3nccc(-c4ccc(CNC(=O)c5cc(C(C)(C)C)on5)c(F)c4)c23)C1` [Example 111, N-{[4-(3-{[(3R)-1-(but-2-ynoyl)pyrrolidin-3-yl]amino}-1H-pyrazolo[3,4-b]pyridin-4-yl)-2-fluorophenyl]methyl}-5-tert-butyl-1,2-oxazole-3-carboxamide], the pIC50 was above 8.00 on Btk (setting [1]), 9.74 on Btk (setting [2]), 6.97 against TEC and 7.04 on panel of kinases. Also, the TEC/Btk at TEC came out at 594.
The matching figures for `CC#CC(=O)N1CC[C@@H](Nc2n[nH]c3nccc(-c4ccc(CNC(=O)c5ccc(OC)cc5)c(F)c4)c23)C1` [Example 112, N-{[4-(3-{[(3R)-1-(but-2-ynoyl)pyrrolidin-3-yl]amino}-1H-pyrazolo[3,4-b]pyridin-4-yl)-2-fluorophenyl]methyl}-4-methoxybenzamide]: above 8.00, 8.39, 7.00, 7.32 and 24.
In the case of `CN(C)C(=O)N1CC[C@H](Nc2n[nH]c3nccc(-c4ccc(CNC(=O)c5noc(C(C)(C)C)n5)c(F)c4)c23)C1` [Example 113, 5-tert-butyl-N-{[4-(3-{[(3S)-1-(dimethylcarbamoyl)pyrrolidin-3-yl]amino}-1H-pyrazolo[3,4-b]pyridin-4-yl)-2-fluorophenyl]methyl}-1,2,4-oxadiazole-3-carboxamide], the values for the negative-log IC50 (pIC50) at Btk (setting [2]), against TEC and on panel of kinases were 7.98, 5.77 and 6.55, respectively. Also, on TEC, the TEC/Btk turned out to be 164.
The matching figures for `CN(C)C(=O)N1CC[C@H](Nc2n[nH]c3nccc(-c4ccc(CNC(=O)c5ccc(C(C)(C)C)cc5)c(F)c4)c23)C1` [Example 114, (3S)-3-{[4-(4-{[(4-tert-butylphenyl)formamido]methyl}-3-fluorophenyl)-1H-pyrazolo[3,4-b]pyridin-3-yl]amino}-N,N-dimethylpyrrolidine-1-carboxamide]: 7.03, 5.39, 5.68 and 44.
The matching figures for `CN(C)C(=O)N1CC[C@@H](Nc2n[nH]c3nccc(-c4ccc(CNC(=O)c5cc(C(C)(C)C)on5)c(F)c4)c23)C1` [Example 115, 5-tert-butyl-N-{[4-(3-{[(3R)-1-(dimethylcarbamoyl)pyrrolidin-3-yl]amino}-1H-pyrazolo[3,4-b]pyridin-4-yl)-2-fluorophenyl]methyl}-1,2-oxazole-3-carboxamide]: 7.59, 5.20, 5.19 and 246.
